Earlier results, collected in US10561697B2, “Compositions based on saffron for the prevention and/or treatment of degenerative eye disorders” (Hortus Novus SRL, priority 2014, dated 2020).

Legend:
rats exposed to light = settings: diet added with 0.2% of curcumin
[1] = tested on: rats affected by the P23H mutation in the rhodopsin gene; settings: 100 mg/kg

COc1cc(/C=C/C(=O)CC(=O)/C=C/c2ccc(O)c(OC)c2)ccc1O [curcumin]
onset of retinal oxidative and inflammatory stress (rats exposed to light): reduction in the onset of retinal oxidative and inflammatory stress | formation of rhodopsin aggregates [1]: active in inhibiting the formation of rhodopsin aggregates | morphology of the retina, photoreceptors preservation ([1]; transgenic rats): improvement in the morphology of the retina
